Source: ChEMBL document CHEMBL1629634, “Postantibiotic effect of tigecycline against 14 gram-positive organisms” (Antimicrob Agents Chemother, 2009)
Values after ≈ are worked out from the molar mass of the structure shown.

What was measured:
Streptococcus pneumoniae [1] = experiment: Antibacterial activity against penicillin-intermediate Streptococcus pneumoniae assessed as sub-MIC effect at 0.3 times MIC concentration incubated for 1 hr by viable plate count method; format: functional
Streptococcus pneumoniae [2] = experiment: Antibacterial activity against penicillin-susceptible Streptococcus pneumoniae by macrodilution method; format: functional
Acinetobacter baumannii [3] = experiment: Antibacterial activity against Acinetobacter baumannii assessed as post-antibiotic sub-MIC effect at 0.2 times MIC concentration pretreated with 10 times MIC concentration for 1 hr followed by 1:1000 dilution by viable plate count method; format: functional
Staphylococcus aureus [4] = experiment: Antibacterial activity against vancomycin-sensitive methicillin-resistant Staphylococcus aureus assessed as post-antibiotic sub-MIC effect at 0.4 times MIC concentration pretreated with 6 times MIC concentration for 1 hr followed by 1:1000 dilution by viable plate count method; format: functional
Haemophilus influenzae [5] = experiment: Antibacterial activity against beta-lactamase deficient ampicillin-resistant Haemophilus influenzae assessed as post-antibiotic sub-MIC effect at 0.2 times MIC concentration pretreated with 10 times MIC concentration for 1 hr followed by 1:1000 dilution by viable plate count method; format: functional
Staphylococcus aureus [6] = experiment: Antibacterial activity against vancomycin-sensitive methicillin-resistant Staphylococcus aureus assessed as post-antibiotic sub-MIC effect at 0.4 times MIC concentration pretreated with 10 times MIC concentration for 1 hr followed by 1:1000 dilution by viable plate count method; format: functional
Acinetobacter baumannii [7] = experiment: Antibacterial activity against Acinetobacter baumannii assessed as sub-MIC effect at 0.3 times MIC concentration incubated for 1 hr by viable plate count method; format: functional
Staphylococcus aureus [8] = experiment: Antibacterial activity against vancomycin-intermediate methicillin-resistant Staphylococcus aureus assessed as post-antibiotic sub-MIC effect at 0.2 times MIC concentration pretreated with 10 times MIC concentration for 1 hr followed by 1:1000 dilution by viable plate count method; format: functional
Enterobacter cloacae [9] = experiment: Antibacterial activity against Enterobacter cloacae assessed as sub-MIC effect at 0.3 times MIC concentration incubated for 1 hr by viable plate count method; format: functional
Streptococcus pneumoniae [10] = experiment: Antibacterial activity against Streptococcus pneumoniae infected in neutropenic mouse thighs assessed as post antibiotic effect; format: functional, Thigh muscle
Streptococcus pneumoniae [11] = experiment: Antibacterial activity against penicillin-resistant Streptococcus pneumoniae assessed as post-antibiotic sub-MIC effect at 0.3 times MIC concentration pretreated with 10 times MIC concentration for 1 hr followed by 1:1000 dilution by viable plate count method; format: functional
Escherichia coli [12] = experiment: Antibacterial activity against Escherichia coli assessed as sub-MIC effect at 0.2 times MIC concentration incubated for 1 hr by viable plate count method; format: functional
Escherichia coli [13] = experiment: Antibacterial activity against Escherichia coli assessed as post-antibiotic sub-MIC effect at 0.3 times MIC concentration pretreated with 10 times MIC concentration for 1 hr followed by 1:1000 dilution by viable plate count method; format: functional
Streptococcus pneumoniae [14] = experiment: Antibacterial activity against penicillin-resistant Streptococcus pneumoniae by macrodilution method; format: functional
Acinetobacter baumannii [15] = experiment: Antibacterial activity against Acinetobacter baumannii by macrodilution method; format: functional
Enterobacter cloacae [16] = experiment: Antibacterial activity against Enterobacter cloacae assessed as post-antibiotic sub-MIC effect at 0.3 times MIC concentration pretreated with 2 times MIC concentration for 1 hr followed by 1:1000 dilution by viable plate count method; format: functional
Acinetobacter baumannii [17] = experiment: Antibacterial activity against multidrug-resistant Acinetobacter baumannii producing OXA-24 and OXA-51 beta-lactamases assessed as post antibiotic effect at 10 times MIC concentration incubated for 1 hr measured after 1:1000 dilution by viable plate count method; format: functional
Escherichia coli [18] = experiment: Antibacterial activity against Escherichia coli assessed as post antibiotic effect at 10 times MIC concentration incubated for 1 hr measured after 1:1000 dilution by viable plate count method; format: functional
Klebsiella pneumoniae [19] = experiment: Antibacterial activity against Klebsiella pneumoniae assessed as post-antibiotic sub-MIC effect at 0.4 times MIC concentration pretreated with 2 times MIC concentration for 1 hr followed by 1:1000 dilution by viable plate count method; format: functional
Escherichia coli [20] = experiment: Antibacterial activity against Escherichia coli assessed as post-antibiotic sub-MIC effect at 0.3 times MIC concentration pretreated with 6 times MIC concentration for 1 hr followed by 1:1000 dilution by viable plate count method; format: functional
Enterococcus faecium = experiment: Antibacterial activity against Enterococcus faecium assessed as post antibiotic effect; format: functional
Escherichia coli [21] = experiment: Antibacterial activity against Escherichia coli assessed as post antibiotic effect; format: functional
Staphylococcus aureus [22] = experiment: Antibacterial activity against vancomycin-sensitive methicillin-resistant Staphylococcus aureus assessed as sub-MIC effect at 0.4 times MIC concentration incubated for 1 hr by viable plate count method; format: functional
Staphylococcus aureus [23] = experiment: Antibacterial activity against vancomycin-sensitive methicillin-resistant Staphylococcus aureus assessed as post-antibiotic sub-MIC effect at 0.2 times MIC concentration pretreated with 6 times MIC concentration for 1 hr followed by 1:1000 dilution by viable plate count method; format: functional
Klebsiella pneumoniae [24] = experiment: Antibacterial activity against Klebsiella pneumoniae assessed as post antibiotic effect at 2 times MIC concentration incubated for 1 hr measured after 1:1000 dilution by viable plate count method; format: functional
Klebsiella pneumoniae [25] = experiment: Antibacterial activity against Klebsiella pneumoniae assessed as post-antibiotic sub-MIC effect at 0.2 times MIC concentration pretreated with 2 times MIC concentration for 1 hr followed by 1:1000 dilution by viable plate count method; format: functional
[26] = Drug level in patient serum at 100 mg, iv followed by 50 mg every 12 hrs after 60 mins post dose; format: ADME, organism-based; settings: human, read-out: Drug uptake
Streptococcus pneumoniae [27] = experiment: Antibacterial activity against penicillin-susceptible Streptococcus pneumoniae assessed as sub-MIC effect at 0.2 times MIC concentration incubated for 1 hr by viable plate count method; format: functional
Enterococcus faecalis [28] = experiment: Antibacterial activity against vancomycin-sensitive Enterococcus faecalis assessed as sub-MIC effect at 0.2 times MIC concentration incubated for 1 hr by viable plate count method; format: functional
Haemophilus influenzae [29] = experiment: Antibacterial activity against amoxicillin, clavulanate-resistant Haemophilus influenzae expressing beta-lactamase assessed as post antibiotic effect at 10 times MIC concentration incubated for 1 hr measured after 1:1000 dilution by viable plate count method; format: functional
Staphylococcus aureus [30] = experiment: Antibacterial activity against vancomycin-intermediate methicillin-resistant Staphylococcus aureus assessed as post-antibiotic sub-MIC effect at 0.2 times MIC concentration pretreated with 6 times MIC concentration for 1 hr followed by 1:1000 dilution by viable plate count method; format: functional
Enterococcus faecalis [31] = experiment: Antibacterial activity against Enterococcus faecalis assessed as post antibiotic effect; format: functional
Haemophilus influenzae [32] = experiment: Antibacterial activity against beta-lactamase deficient and ampicillin-resistant Haemophilus influenzae assessed as sub-MIC effect at 0.2 times MIC concentration incubated for 1 hr by viable plate count method; format: functional
Haemophilus influenzae [33] = experiment: Antibacterial activity against amoxicillin, clavulanate-resistant Haemophilus influenzae expressing beta-lactamase assessed as post-antibiotic sub-MIC effect at 0.4 times MIC concentration pretreated with 6 times MIC concentration for 1 hr followed by 1:1000 dilution by viable plate count method; format: functional
Klebsiella pneumoniae [34] = experiment: Antibacterial activity against Klebsiella pneumoniae assessed as sub-MIC effect at 0.4 times MIC concentration incubated for 1 hr by viable plate count method; format: functional
Klebsiella pneumoniae [35] = experiment: Antibacterial activity against Klebsiella pneumoniae assessed as post-antibiotic sub-MIC effect at 0.3 times MIC concentration pretreated with 2 times MIC concentration for 1 hr followed by 1:1000 dilution by viable plate count method; format: functional

Compound `CN(C)c1cc(NC(=O)CNC(C)(C)C)c(O)c2c1C[C@H]1C[C@H]3[C@H](N(C)C)C(O)=C(C(N)=O)C(=O)[C@@]3(O)C(O)=C1C2=O` [TIGECYCLINE] has a PAE (Streptococcus pneumoniae [1]) of 5.7 h, an MIC (Streptococcus pneumoniae [2]) of 0.03 µg/mL (≈ 0.0512 µM) and a PAE (Acinetobacter baumannii [3]) of 6.7 h. For the same compound, the PAE (Staphylococcus aureus [4]) was 6.9 h, the PAE (Haemophilus influenzae [5]) was 2.8 h and the PAE (Staphylococcus aureus [6]) was 6.7 h. The PAE (Acinetobacter baumannii [7]) was 1.5 h, the PAE (Staphylococcus aureus [8]) was 6.6 h and the PAE (Enterobacter cloacae [9]) was 0.4 h. For the same compound, the PAE (Streptococcus pneumoniae [10]) was 8.9 h, the PAE (Streptococcus pneumoniae [11]) was 10.2 h and the PAE (Escherichia coli [12]) was 0 h. It also gave a PAE (Escherichia coli [13]) of 2.2 h, an MIC (Streptococcus pneumoniae [14]) of 0.03 µg/mL (≈ 0.0512 µM) and an MIC (Acinetobacter baumannii [15]) of 0.12 µg/mL (≈ 0.205 µM). For the same compound, the PAE (Enterobacter cloacae [16]) was 4.9 h, the PAE (Acinetobacter baumannii [17]) was 1.3 h and the PAE (Escherichia coli [18]) was 2 h. It also gave a PAE (Klebsiella pneumoniae [19]) of 2.6 h, a PAE (Escherichia coli [20]) of 2.9 h and a PAE (Enterococcus faecium) of 2.5 h. The PAE (Escherichia coli [21]) was 2 h, the PAE (Staphylococcus aureus [22]) was 0.9 h and the PAE (Staphylococcus aureus [23]) was 3.7 h. The PAE (Klebsiella pneumoniae [24]) was 1.7 h, the PAE (Klebsiella pneumoniae [25]) was 1.8 h and the concentration at 1 h [26] was 600 ng/mL. It also gave a PAE (Streptococcus pneumoniae [27]) of 0 h, a PAE (Enterococcus faecalis [28]) of 0 h and a PAE (Haemophilus influenzae [29]) of 3.7 h. It also gave a PAE (Staphylococcus aureus [30]) of 5.6 h, a PAE (Enterococcus faecalis [31]) of 1 h and a PAE (Haemophilus influenzae [32]) of 0.8 h. It also gave a PAE (Haemophilus influenzae [33]) of 7.7 h, a PAE (Klebsiella pneumoniae [34]) of 0.7 h and a PAE (Klebsiella pneumoniae [35]) of 2 h.
